Results reported in US20040147494A1, “Use” (priority 2001, published 2004).

What was measured:
11 β-HSD type 1 = target: T1, 11 β-HSD type 1 (Rattus norvegicus, UniProt P16232); assay: biochemical; type: biochemical; settings: read-out: % […]→F ± SD, inhibitor 10 μM; rat liver cytosol 25 μL, 90 min, 37° C.; cortisone (E) to cortisol (F); vs control without inhibitor; means n=2; read-out: % INHIBITION E→F ± SD
T1 construct: Both the kidneys and livers were homogenised on ice in PBS- sucrose buffer; tissue Harlan Olac, Bicester, Oxon, UK (rats); host or cells: rat liver homogenate supernatant (Wistar rat)

11 β-HSD type 2 = target: T2, 11 β-HSD type 2 (Rattus norvegicus, UniProt P50233); assay: biochemical; settings: read-out: % […]→E ± SD, inhibitor 10 μM; rat kidney cytosol 150 μL, 60 min, 37° C.; cortisol (F) to cortisone (E); vs control without inhibitor; means n=2; read-out: % INHIBITION F→E ± SD
T2 construct: Both the kidneys and livers were homogenised on ice in PBS- sucrose buffer; tissue Harlan Olac, Bicester, Oxon, UK (rats); host or cells: rat kidney homogenate supernatant (Wistar rat)
T2 sequence (P50233 1-400): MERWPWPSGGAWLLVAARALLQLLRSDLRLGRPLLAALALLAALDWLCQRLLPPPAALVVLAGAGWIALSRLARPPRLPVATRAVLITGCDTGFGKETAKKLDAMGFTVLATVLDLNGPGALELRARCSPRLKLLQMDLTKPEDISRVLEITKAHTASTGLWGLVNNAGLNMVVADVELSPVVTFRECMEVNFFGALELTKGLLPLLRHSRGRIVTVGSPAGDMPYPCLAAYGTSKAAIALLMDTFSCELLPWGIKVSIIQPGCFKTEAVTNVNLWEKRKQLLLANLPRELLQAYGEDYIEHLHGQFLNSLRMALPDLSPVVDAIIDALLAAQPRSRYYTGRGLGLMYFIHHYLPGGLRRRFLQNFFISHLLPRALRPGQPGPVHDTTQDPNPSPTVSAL
Experimental: Enzymes—Rat livers and rat kidneys were obtained from normal Wistar rats (Harlan Olac, Bicester, Oxon,UK). Both the kidneys and livers were homogenised on ice in PBS- sucrose buffer (1 g/10 ml) using an Ultra-Turrax. After the livers and kidneys were homogenised the homogenate was centrifuged for five minutes at 4000 rpm. The supernatant obtained was removed and stored in glass vials at −20° C. The amount of protein per μl of rat liver and kidney cytosol was determined using the Bradford method.
The same procedure was used for the 11 β-HSD type 2 assay, the conversion F to E, to determine the amount of rat kidney to be used and the incubation time.
In these assays the influence of different inhibitors on the 11 β-HSD activity both in reductive (type 1) and oxidative (type 2) directions were assessed. In the reductive direction E is the substrate and F the product and visa versa in the case of oxidation. The method described here is for the oxidative direction.
The substrate solution contained about 50,000 cpm/ml ^3H—F in PBS-sucrose and 0.5 pM F. 1 ml of the substrate solution was added to each tube, the inhibitors were also added, at a 10 μM concentration, to each tube except to the “control” and “blank” tubes. 150 μL was added to all tubes except to the blanks, this was done to correct for the amount of ^3H[…]. The tubes were incubated for 60 minutes in a mechanically shaken water bath at 37° C. […] After incubation 50 μL of recovery was added to correct for the losses made in the next steps, containing 5000 cpm/50 μL of ^14C-E and 50 μg/50 μL of unlabelled E (to visualise the spot on the TLC-plate). The aqueous mixture was then extracted with 4 ml of ether (2×30 sec cycle, vortex mix). After freezing the aqueous phase, the ether (upper) layer was decanted into smaller tubes and evaporated at 45° C. until completely dry. The residue was then re-dissolved in 6 drops of ether and transferred to a TLC-plate. The TLC-plate was developed in chloroform:methanol (9:1 v/v) solvent system, the TLC-plate ran for about 90 minutes until the solvent front had moved about 18 cm. The position of the product E was visualised under UV-light and cut out from the TLC-plate and put into scintillation vials. Radioactivity was eluted over 5 minutes with 0.5 ml methanol. 0.5 ml of PBS- sucrose and 10 ml of Ecoscint were then added and vortex mixed before counting in the scintillation counter. Before counting the samples, two total activity vials were prepared. These contained 0.5 ml of the substrate solution, 50 μL of the recovery, 0.5 ml of methanol and 10 ml of Ecoscint. These two total activity vials were needed to determine the amount of ^14C-E and ^3H—F added in the beginning to make the calculations.
To look at the percentage of inhibition four different concentrations, 1, 5, 10 and 20 μM, were used. The method for both the rat liver, type 1 the reductive, and rat kidney, type 2 the oxidative, stay the same throughout the entire experiment.
In this experiment the influence of different inhibitors on the conversion E to F and F to E was determined. The reason why inhibition in both directions was examined was to make a comparison between the inhibitors and which type of 11 β-HSD they inhibit more. Thirty-two compounds were screened for their ability to inhibit 11 β-HSD type 1 (E to F) and type 2 (F to E). […] The percent of inhibition was calculated as the percentage of decrease in radio labelled ^3H-E and ^3H—F of product formed, compared with the control activity (the tubes without an inhibitor in it). All the results calculated are means, n=2.

T1 sequence (P16232 whole entry): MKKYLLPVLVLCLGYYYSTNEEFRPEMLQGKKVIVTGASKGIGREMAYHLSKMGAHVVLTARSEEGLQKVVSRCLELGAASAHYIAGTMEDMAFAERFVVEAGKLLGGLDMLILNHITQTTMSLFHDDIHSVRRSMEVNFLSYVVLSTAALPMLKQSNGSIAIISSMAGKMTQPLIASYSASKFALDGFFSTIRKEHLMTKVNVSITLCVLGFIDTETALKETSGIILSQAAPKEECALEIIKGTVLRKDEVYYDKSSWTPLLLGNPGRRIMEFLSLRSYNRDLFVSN

SMILES | melting point | inhibition at 10 µM (11 β-HSD type 1) [%] | inhibition at 10 µM (11 β-HSD type 2) [%]
CC1(C)C2CC[C@]3(C)C(CC=C4[C@@H]5C[C@@](C)(C(=O)OC6CCCCC6)CC[C@]5(C)CC[C@]43C)[C@@]2(C)CC[C@@H]1O (stereo partly drawn) | 163 to 166 °C | – | –
CC(C)OC(=O)[C@@]1(C)CC[C@]2(C)CC[C@]3(C)C(=CC(=O)C4[C@@]5(C)CC[C@H](O)C(C)(C)C5CC[C@]43C)[C@@H]2C1 (stereo partly drawn) | 271 to 273 °C (dec.) | – | –
CC(C)(C)OC(=O)[C@@]1(C)CC[C@]2(C)CC[C@]3(C)C(=CC(=O)C4[C@@]5(C)CC[C@H](O)C(C)(C)C5CC[C@]43C)[C@@H]2C1 (stereo partly drawn) | 171 to 174 °C | – | –
COC(=O)[C@@]1(C)CC[C@]2(C)CC[C@]3(C)C(=CCC4[C@@]5(C)CC[C@H](O)C(C)(C)C5CC[C@]43C)[C@@H]2C1 (stereo partly drawn) [DGS01092 B] | 135 to 137 °C | – | –
CC1(C)C2CC[C@]3(C)C(C(=O)C=C4[C@@H]5C[C@@](C)(C(=O)OCCCc6ccccc6)CC[C@]5(C)CC[C@]43C)[C@@]2(C)CC[C@H]1O (stereo partly drawn) | 114 to 116 °C | – | –
COC(=O)[C@@]1(C)CC[C@]2(C)CC[C@]3(C)C(=CCC4[C@@]5(C)CC[C@H](O)C(C)(C)C5CC[C@]43C)[C@@H]2C1 (stereo partly drawn) [STX 299] | – | 20.2 ± 1.89 | 19.5 ± 1.66
CC1(C)C2CC[C@]3(C)[C@H](C(=O)C=C4[C@@H]5C[C@@](C)(C(=O)NCc6ccccn6)CC[C@]5(C)CC[C@]43C)[C@@]2(C)CC[C@@H]1O (stereo partly drawn) [STX 371, 18β-Glycyrrhetinic Acid (pyridin-2-ylmethyl)-amide] | – | 57.1 ± 5.6 | 93 ± 2.75
CCOC(=O)[C@H](C)NC(=O)[C@@]1(C)CC[C@]2(C)CC[C@]3(C)C(=CC(=O)[C@@H]4[C@@]5(C)CC[C@H](O)C(C)(C)C5CC[C@]43C)[C@@H]2C1 (stereo partly drawn) [STX 369, 18β-Glycyrrhetinic Acid L-alanine Ethyl Ester Amide] | – | 24.9 ± 2.51 | 35.4 ± 12.6
COC(=O)[C@@]1(C)CC[C@]2(C)CC[C@]3(C)C(=CC(=O)[C@@H]4[C@@]5(C)CC[C@H](OCc6ccccc6)C(C)(C)C5CC[C@]43C)[C@@H]2C1 (stereo partly drawn) [STX 359] | – | 17.8 ± 2.5 | 17 ± 3.5
CC1(C)C(O)CC[C@@]2(C)C1CC[C@]1(C)C2CC=C2[C@@H]3C[C@@](C)(C(=O)OCc4ccccc4)CC[C@]3(C)CC[C@]21C (stereo partly drawn) [STX 296] | – | 37.7 ± 8.85 | 33.8 ± 15.8
CC1(C)C2CC[C@]3(C)C(CC=C4[C@@H]5C[C@@](C)(CO)CC[C@]5(C)CC[C@]43C)[C@@]2(C)CC[C@@H]1O (stereo partly drawn) [STX 350] | – | 13.4 ± 9.63 | 60.3 ± 3.99
CO[C@H]1CC[C@@]2(C)C(CC[C@]3(C)C2C(=O)C=C2[C@@H]4C[C@@](C)(C(=O)O)CC[C@]4(C)CC[C@]23C)C1(C)C (stereo partly drawn) [STX195a, 3β-Methoxy-11-oxo-18β-glycerrhetinic acid] | – | 53 ± 1.02 | 90.3 ± 1.98
COC(=O)[C@@]1(C)CC[C@]2(C)CC[C@]3(C)C(=CC(=O)[C@@H]4[C@@]5(C)CC[C@H](OCc6ccc(C(C)(C)C)cc6)C(C)(C)C5CC[C@]43C)[C@@H]2C1 (stereo partly drawn) [STX 360] | – | 14.7 ± 2.4 | 26.4 ± 11.6
COC(=O)[C@@]1(C)CC[C@]2(C)CC[C@]3(C)C(=CC(=O)C4[C@@]5(C)CC[C@H](O)C(C)(C)C5CC[C@]43C)[C@@H]2C1 (stereo partly drawn) [STX195, 3β-Hydroxy-11-oxo-18β-glycyrrhetinic acid methyl ester] | – | 85.4 ± 2.29 | 105 ± 1.55
CC(=O)O[C@H]1CC[C@@]2(C)C(CC[C@]3(C)[C@@H]2C(=O)C=C2[C@@H]4C[C@@](C)(C(=O)NCc5ccccc5)CC[C@]4(C)CC[C@]23C)C1(C)C (stereo partly drawn) [STX 367, 3β-Acetoxy-18β-Glycyrrhetinic Acid Benzylamide] | – | 36.2 ± 3.69 | 27.3 ± 2.99
CC1(C)C2CC[C@]3(C)C(CC=C4[C@@H]5C[C@@](C)(C(=O)O)CC[C@]5(C)CC[C@]43C)[C@@]2(C)CC[C@@H]1O (stereo partly drawn) [STX122, 11-Deoxo-18β-glycerrhetinic acid] | – | 92.7 ± 1.23 | 109 ± 1.64
